Results published in publication PMC4915685 (PLoS ONE, 2016).

Key:
human plasma protein = assay: Plasma protein binding; assay type: in vitro ADME; conditions: over the range of 0.1 to 10 μg/mL (unpublished results)
[1] = set-up: method as in earlier work; conditions: 100 mg single dose, 168 hours after administration, Japanese healthy volunteers; cited from earlier work
T2DM patients = conditions: cited from earlier work
[2] = biological target: T1, dog plasma DPP-4 activity (Canis lupus familiaris, UniProt A0A8I3Q2I8); assay: Inhibition of plasma DPP-4 activity, dog plasma (GP-pNA); assay type: biochemical
T1 construct: tissue Kitayama Labes Co., Ltd. (animals); host or cells: beagle dog plasma
Experimental: Male Sprague–Dawley rats (7 weeks old, n = 30) and male beagle dogs (2–5 years old, n = 3) were purchased from CLEA Japan (Tokyo, Japan) and Kitayama Labes Co., Ltd. (Nagano, Japan), respectively. […] Rat blood samples were taken from abdominal vein under ether inhalation anesthesia in anesthetized rats before euthanasia by exsanguination. Dog blood samples were collected from anterior limb veins in conscious dogs that were restrained in a retainer. […] Plasma samples were prepared and stored at -80°C before use.

[3] = biological target: T2, prolyl endopeptidase (PEP) (Rattus norvegicus, UniProt O70196); assay: PEP inhibition assay; assay type: biochemical
T2 construct: were prepared from rat kidney and brain, respectively; from tissue; host or cells: rat brain
T2 sequence (O70196 1-710): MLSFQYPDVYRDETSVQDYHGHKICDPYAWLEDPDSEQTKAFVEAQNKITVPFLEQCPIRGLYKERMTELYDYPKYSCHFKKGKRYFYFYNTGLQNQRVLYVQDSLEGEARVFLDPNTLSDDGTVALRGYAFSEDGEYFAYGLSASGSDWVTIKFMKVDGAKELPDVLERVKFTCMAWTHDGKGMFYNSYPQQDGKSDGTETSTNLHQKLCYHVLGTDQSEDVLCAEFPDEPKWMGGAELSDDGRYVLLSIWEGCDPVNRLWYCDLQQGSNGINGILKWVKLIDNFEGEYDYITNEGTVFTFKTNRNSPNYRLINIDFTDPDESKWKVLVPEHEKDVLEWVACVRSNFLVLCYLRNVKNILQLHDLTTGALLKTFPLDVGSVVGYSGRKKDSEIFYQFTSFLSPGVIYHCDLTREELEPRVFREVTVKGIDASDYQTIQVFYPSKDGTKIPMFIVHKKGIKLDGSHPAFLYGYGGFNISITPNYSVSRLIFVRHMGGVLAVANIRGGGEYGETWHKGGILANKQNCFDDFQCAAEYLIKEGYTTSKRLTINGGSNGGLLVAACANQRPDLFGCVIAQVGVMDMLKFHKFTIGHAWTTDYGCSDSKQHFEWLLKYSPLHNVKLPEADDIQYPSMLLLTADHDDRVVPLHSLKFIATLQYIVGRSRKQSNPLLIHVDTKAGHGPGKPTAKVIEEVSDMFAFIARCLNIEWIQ

T1 sequence (A0A8I3Q2I8 1-765): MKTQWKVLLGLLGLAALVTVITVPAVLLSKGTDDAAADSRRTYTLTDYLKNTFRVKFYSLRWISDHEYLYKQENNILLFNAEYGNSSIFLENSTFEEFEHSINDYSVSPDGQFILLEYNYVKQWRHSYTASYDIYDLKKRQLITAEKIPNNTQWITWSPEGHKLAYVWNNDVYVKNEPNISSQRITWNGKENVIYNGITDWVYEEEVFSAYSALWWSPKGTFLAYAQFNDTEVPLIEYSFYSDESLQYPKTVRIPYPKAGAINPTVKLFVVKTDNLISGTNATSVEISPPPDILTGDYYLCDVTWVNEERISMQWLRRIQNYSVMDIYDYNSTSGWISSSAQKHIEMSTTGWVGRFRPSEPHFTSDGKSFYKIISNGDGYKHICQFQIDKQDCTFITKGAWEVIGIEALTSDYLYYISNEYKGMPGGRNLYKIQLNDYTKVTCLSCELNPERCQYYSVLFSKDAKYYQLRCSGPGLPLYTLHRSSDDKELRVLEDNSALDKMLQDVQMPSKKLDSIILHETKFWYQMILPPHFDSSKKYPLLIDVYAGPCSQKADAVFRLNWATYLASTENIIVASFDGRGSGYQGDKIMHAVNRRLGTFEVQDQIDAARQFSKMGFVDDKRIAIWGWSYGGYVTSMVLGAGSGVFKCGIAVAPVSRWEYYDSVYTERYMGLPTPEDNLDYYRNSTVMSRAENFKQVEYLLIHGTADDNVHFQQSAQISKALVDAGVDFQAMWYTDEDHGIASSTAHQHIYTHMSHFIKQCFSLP

SMILES | binding to human plasma protein (human plasma protein) | plasma trelagliptin concentration [mean (SD)] [1] | safety in clinical studies (T2DM patients; clinical studies) | efficacy in terms of reduction of HbA1c versus alogliptin 25 mg daily dosing (T2DM patients; trelagliptin 100 mg weekly dosing, T2DM patients) | IC50 [2] [nM] | IC50 [3] [nM]
Cn1c(=O)cc(N2CCC[C@@H](N)C2)n(Cc2ccccc2C#N)c1=O [alogliptin, 2-[6-(3(R)-aminopiperidin-1-yl)-3-methyl-2,4-dioxo-3,4-dihydro-2H-pyrimidin-1-ylmethyl]benzonitrile, reference compound] | 28.2–32.3% | – | – | – | – | –
Cn1c(=O)cc(N2CCC[C@@H](N)C2)n(Cc2cc(F)ccc2C#N)c1=O [trelagliptin, 2-[6-(3(R)-aminopiperidin-1-yl)-3-methyl-2,4-dioxo-3,4-dihydro-2H-pyrimidin-1-ylmethyl]-4-fluorobenzonitrile] | 22.1–27.6% | 2.12 (0.679) ng/mL | no major safety concerns | non-inferior | 6.2 | > 100000
